In article PMC8781960, “Structural Basis of 2-Phenylamino-4-phenoxyquinoline Derivatives as Potent HIV-1 Non-Nucleoside Reverse Transcriptase Inhibitors” (Molecules, 2022):
Marks after values point to notes of the source that are not given here.

Columns and labels:
[1] = biological target: T1, HIV-1 RT (Human immunodeficiency virus type 1 group M subtype B, UniProt P03366); assay: HIV-1 RT inhibition assay (Roche RT kit, colorimetric ELISA); assay type: biochemical; details: for inhibition at 1 µM: read-out: Inhibitory activities (%) against HIV-1 RT
T1 construct: The reaction mixture consisted of template/primer complex, 2′-deoxy-nucleotide-5′-triphosphates (dNTPs), and RT enzyme in lysis buffer; purchased Roche Applied Science, Mannheim, Germany
Text: The inhibition assay of HIV-1 RT was accomplished using the template/primer hybrid poly(A) × oligo(dT)15, digoxigenin (DIG)- and biotin-labeled nucleotides, an antibody to DIG that was conjugated to peroxidase (anti-DIG-POD), and the peroxidase substrate ABTS. The quantities of DIG- and biotin-labeled dUTP incorporated into DNA represent t HIV-1 RT activity. The HIV-RT inhibition assay was implemented using an RT assay kit (Roche Applied Science, Mannheim, Germany), and the procedures for assaying RT inhibition were performed as described in the kit protocol. […] The reaction mixture consisted of template/primer complex, 2′-deoxy-nucleotide-5′-triphosphates (dNTPs), and RT enzyme in lysis buffer with or without an inhibitor. […] The biotin-labeled dNTPs that were incorporated in the template bound to streptavidin because of the presence of RT. Unbound dNTPs were washed using a wash buffer, and anti-DIG-POD was added to the MTP. The DIG-labeled dNTPs incorporated in the template bound to the anti-DIG-POD antibody. Unbound anti-DIG-POD was also washed elaborately five times using a wash buffer. Finally, the peroxide substrate (ABST) was added to the MTP. A colored reaction product emerged during the cleavage of the substrate catalyzed by […]. The absorbance of the sample was measured at the optical density (OD) at 490 nm using the MTP (enzyme-linked immunosorbent assay [ELISA]) reader. The percentage inhibitory activities of the RT inhibitors were calculated by comparing with that of the sample without an inhibitor. The resulting color intensity was directly proportional to the RT activity. Percentage inhibitory values were calculated using the following formula: Inhibition (%) = [1–(OD value with RT and inhibitor−OD value without RT and inhibitors)/(OD value without inhibitors with RT−OD value without RT and inhibitors)] × 100.

[2] = test system: A549 (lung carcinoma); assay: In vitro cytotoxicity (MTT); details: for %C percentage cytotoxicity A549: at 50 µg/mL, inactive (IC50 ≥ 50 µg/mL)
Protocol: (§1) Background control wells contained the same volume as the complete culture medium. […] Samples at various concentrations were added to the microplate and incubated for another 48 h. Cell viability was determined by 3(4,5-dimethylthiazol-2-yl)-2-5-diphenyl tetrazolium bromide (MTT) assay (Sig-ma-Aldrich). The reagent was dissolved in phosphate-buffered saline at 5 mg/mL and filtered to sterilize and remove the small amount of insoluble residue present in some batches of MTT. […] Subsequently, dimethyl sulfoxide (100 µL; Merck, Germany) was added to dissolve the resulting formazan by sonication. The plates were read on a microplate reader (Molecular Devices, CA, USA) using a test wavelength of 550 nm and a reference wavelength of 650 nm. XTT assay for suspension cells was used for MOLT-3 cells.

[3] = test system: HL-60 (promyeloblast); assay: In vitro cytotoxicity (MTT); details: for %C percentage cytotoxicity HL-60: at 50 µg/mL, inactive (IC50 ≥ 50 µg/mL); for IC50: Homo sapiens, HL-60, 48 h, read-out: IC50 HL-60
Protocol: as §1

[4] = test system: HeLA (cervical carcinoma); assay: In vitro cytotoxicity (MTT); details: for %C percentage cytotoxicity HeLA: at 50 µg/mL, inactive (IC50 ≥ 50 µg/mL); for IC50: Homo sapiens, HeLa, 48 h, read-out: IC50 HeLA
Protocol: as §1

[5] = test system: HepG2 (hepatocarcinoma); assay: In vitro cytotoxicity (MTT); details: for %C percentage cytotoxicity HepG2: at 50 µg/mL, inactive (IC50 ≥ 50 µg/mL); for IC50: Homo sapiens, HepG2, 48 h, read-out: IC50 HepG2
Protocol: as §1

[6] = test system: HuCCA-1 (cholangiocarcinoma); assay: In vitro cytotoxicity (MTT); details: for %C percentage cytotoxicity HuCCA-1: at 50 µg/mL, inactive (IC50 ≥ 50 µg/mL); for IC50: Homo sapiens, HuCC-A1, 48 h, read-out: IC50 HuCCA-1
Protocol: as §1

[7] = test system: MDA-MB-231 (hormone-independent breast cancer); assay: In vitro cytotoxicity (MTT); details: for %C percentage cytotoxicity MDA-MB-231: at 50 µg/mL, inactive (IC50 ≥ 50 µg/mL); for IC50: Homo sapiens, MDA-MB-231, 48 h, read-out: IC50 MDA-MB-231
Protocol: as §1

[8] = test system: S102 (Thai liver cancer); assay: In vitro cytotoxicity (MTT); details: at 50 µg/mL; inactive (IC50 ≥ 50 µg/mL)
Protocol: as §1

[9] = test system: T47-D (hormone-dependent breast cancer); assay: In vitro cytotoxicity (MTT); details: for %C percentage cytotoxicity T47-D: at 50 µg/mL, inactive (IC50 ≥ 50 µg/mL)
Protocol: as §1

[10] = test system: MOLT-3 (acute lymphoblastic leukemia); assay: In vitro cytotoxicity (XTT); details: for %C percentage cytotoxicity MOLT-3: at 50 µg/mL, inactive (IC50 ≥ 50 µg/mL); for IC50: Homo sapiens, MOLT-3, 48 h, read-out: IC50 MOLT-3
Protocol: as §1

[11] = test system: MRC-5 (normal embryonic lung cell); assay: In vitro cytotoxicity (MTT), normal cell line; details: for %C percentage cytotoxicity MRC-5: normal cell line, at 50 µg/mL, inactive (IC50 ≥ 50 µg/mL); for IC50: Homo sapiens, MRC5, 48 h, read-out: IC50 MRC-5
Protocol: as §1

[12] = test system: H69AR (lung cancer, multidrug resistant); assay: In vitro cytotoxicity (MTT); assay type: cell-based, human; details: 48 h; for %C percentage cytotoxicity H69AR: human, 50 µg/mL
Protocol: Background control wells contained the same volume as the complete culture medium. […] The reagent was dissolved in phosphate-buffered saline at 5 mg/mL and filtered to sterilize and remove the small amount of insoluble residue present in some batches of MTT. […] Subsequently, dimethyl sulfoxide (100 µL; Merck, Germany) was added to dissolve the resulting formazan by sonication. The plates were read on a microplate reader (Molecular Devices, CA, USA) using a test wavelength of 550 nm and a reference wavelength of 650 nm.

| Compound | inhibition at 1 µM [1] [%] | %C percentage cytotoxicity A549 [2] | %C percentage cytotoxicity HL-60 [3] | %C percentage cytotoxicity HeLA [4] | %C percentage cytotoxicity HepG2 [5] | %C percentage cytotoxicity HuCCA-1 [6] | %C percentage cytotoxicity MDA-MB-231 [7] | %C percentage cytotoxicity S102 [8] | %C percentage cytotoxicity T47-D [9] | %C percentage cytotoxicity MOLT-3 [10] | %C percentage cytotoxicity MRC-5 [11] | %C percentage cytotoxicity H69AR [12] | melting point [°C] | IC50 [3] [µM] | IC50 [4] [µM] | IC50 [5] [µM] | IC50 [6] [µM] | IC50 [10] [µM] | IC50 [11] [µM] | IC50 [7] [µM] | further results |
| --- | --- | --- | --- | --- | --- | --- | --- | --- | --- | --- | --- | --- | --- | --- | --- | --- | --- | --- | --- | --- | --- |
| Cc1cc(C=CC#N)cc(C)c1Oc1cc(Nc2ccc(C#N)cc2)c2ccccc2n1 [Compound 11b, 2-(4′-(2″-(E, Z)-cyanovinyl)-2′,6′-dimethyl-phenoxy)-4-(4″-cyanophenyl)-aminoquinoline] | 34.3 ± 2.6 | %C = 0.0 ^c | %C = 0.0 ^c | %C = 2.0 ^c | %C = 3.7 ^c | %C = 0.0 ^c | %C = 14.1 ^c | %C = 0.0 ^c | %C = 4.0 ^c | %C = 19.0 ^c | %C = 0.0 ^c | %C = 3.0 ^c | 180.7 to 182.3 | – | – | – | – | – | – | – | – |
| O=Cc1ccc(Oc2cc(Oc3ccc(C=O)cc3)c3ccccc3n2)cc1 [Compound 4a, 2,4-di-(4′-formylphenoxy)-quinoline] | 17.3 ± 2.4 | %C = 40.0 ^c | – | – | – | – | %C = 43.3 ^c | %C = 0.4 ^c | %C = 34.0 ^c | – | – | %C = 0.0 ^c | 164.9 to 165.5 | 92.4 ± 3.1 | 104 ± 7.9 | 90.9 ± 2.1 | 48.1 ± 1.7 | 25.1 ± 2.6 | 84.3 ± 9.6 | – | – |
| N#Cc1ccc(Oc2cc(Oc3ccc(C#N)cc3)c3ccccc3n2)cc1 [Compound 4c, 2,4-di-(4′-cyanophenoxy)-quinoline] | 30.9 ± 1.8 | %C = 12.0 ^c | %C = 15.0 ^c | %C = 23.0 ^c | %C = 41.4 ^c | %C = 15.0 ^c | – | %C = 23.7 ^c | %C = 27.0 ^c | %C = 11.0 ^c | – | %C = 21.0 ^c | 220.9 to 221.5 | – | – | – | – | – | 108 ± 6.4 | 92.5 ± 4.2 | – |
| Cc1cc(C=O)cc(C)c1Oc1cc(Nc2ccc(C#N)cc2)c2ccccc2n1 [Compound 8b, 2-(2′,6′-Dimethyl-4′-formylphenoxy)-4-(4″-cyanophenyl)-aminoquinoline] | 39.6 ± 1.5 | %C = 37.0 ^c | – | – | – | %C = 43.0 ^c | – | %C = 0.0 ^c | %C = 38.0 ^c | – | %C = 9.7 ^c | %C = 6.0 ^c | 200 to 201.3 | 34.9 ± 5.1 | 42.3 ± 2.7 | 106 ± 9.7 | – | 22.3 ± 1.9 | – | 107 ± 3.2 | – |
| N#Cc1ccc(Nc2cc(Oc3ccc(C#N)cc3)nc3ccccc23)cc1 [Compound 8c, 2-(4′-cyanophenoxy)-4-(4″-cyanophenyl)-aminoquinoline] | 28.1 ± 3 | %C = 29.0 ^c | %C = 1.0 ^c | %C = 0.0 ^c | %C = 40.3 ^c | %C = 25.8 ^c | %C = 0.0 ^c | %C = 0.0 ^c | %C = 35.0 ^c | %C = 2.1 ^c | %C = 17.2 ^c | %C = 21.0 ^c | 187.5 to 188 | – | – | – | – | – | – | – | – |
| Cc1cc(C#N)cc(C)c1Oc1cc(Nc2ccc(C#N)cn2)nc2ccccc12 [Compound 6d, 4-(2′,6′-Dimethyl-4′-cyanophenoxy)-2-(5’’-cyanopyridin-2’’ylamino)quinoline] | 45.1 ± 1.5 | %C = 8.0 ^c | %C = 13.0 ^c | %C = 0.0 ^c | %C = 0.0 ^c | %C = 0.0 ^c | %C = 8.3 ^c | %C = 0.0 ^c | %C = 1.0 ^c | %C = 27.0 ^c | %C = 0.0 ^c | %C = 0.0 ^c | 229.4 to 230.3 | – | – | – | – | – | – | – | IC50 [1]: 1.22 µM; cytotoxicity toward normal embryonic lung (MRC-5) cells, in words [11]: no cytotoxicity |
| N#Cc1ccc(Nc2cc(Oc3ccc(C=O)cc3)c3ccccc3n2)nc1 [Compound 6a, 4-(4’-formylphenoxy)-2-(5″-cyanopyridin-2″ylamino)quinoline] | 19.4 ± 1.8 | %C = 42.0 ^c | – | – | – | – | – | %C = 31.7 ^c | – | – | – | – | 248 to 249 | 15 ± 1.8 | 15.4 ± 0.8 | 23.7 ± 1 | 14.9 ± 1.1 | 5.13 ± 1.5 | 18.3 ± 3.9 | 68 ± 2 | IC50 ([9]; Homo sapiens, T47D, 48 h, read-out: IC50 T47-D): 46.3 ± 0.2 µM; IC50 ([12]; Homo sapiens, H69AR, mean ± standard error): 64.2 ± 2.5 µM |
| N#Cc1ccc(Nc2cc(Oc3ccc(C=O)cc3)nc3ccccc23)cc1 [Compound 8a, 2-(4′-formylphenoxy)-4-(4″-cyanophenyl)-aminoquinoline] | 29.6 ± 2.7 | – | – | – | – | – | – | %C = 2.9 ^c | %C = 0.0 ^c | – | – | %C = 8.4 ^c | 238.5 to 238.9 | 107 ± 1.4 | 112 ± 3.1 | 85.3 ± 3.5 | 22.7 ± 1.9 | 21.5 ± 3.3 | 119 ± 5.7 | 118 ± 5.8 | IC50 ([2]; Homo sapiens, A549, 48 h, read-out: IC50 A549): 111 ± 5.6 µM |
